Source: PubChem BioAssay (NCI)
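Values below derive from 48-hour exposures of cells grown in 96-well plates, with endpoints linearly interpolated between the two concentrations bracketing the appropriate inhibition level. At the GI50, growth is halved. TGI: total growth inhibition.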

Key:
Test in all cases: growth of human tumour cells (NCI), 48 h
[1] = tested on: T-47D breast
[2] = tested on: MDA-MB-231 breast
[3] = tested on: OVCAR-3 ovarian
[4] = tested on: RPMI-8226 leukemia
[5] = tested on: UO-31 renal
[6] = tested on: HOP-92 NSCLC
[7] = tested on: U251 CNS
[8] = tested on: LOX IMVI melanoma
[9] = tested on: SR leukemia
[10] = tested on: OVCAR-8 ovarian
[11] = tested on: UACC-62 melanoma
[12] = tested on: KM12 colon
[13] = tested on: K-562 leukemia
[14] = tested on: NCI/ADR-RES ovarian
[15] = tested on: SW-620 colon
[16] = tested on: SN12C renal
[17] = tested on: SNB-75 CNS
[18] = tested on: NCI-H226 lung
[19] = tested on: SF-539 CNS
[20] = tested on: CCRF-CEM leukemia
[21] = tested on: SK-MEL-5 melanoma
[22] = tested on: SF-295 CNS
[23] = tested on: OVCAR-4 ovarian
[24] = tested on: HOP-62 NSCLC
[25] = tested on: NCI-H522 lung
[26] = tested on: MDA-MB-435
[27] = tested on: NCI-H460 lung
[28] = tested on: NCI-H23 lung
[29] = tested on: DU-145 prostate
[30] = tested on: BT-549 breast
[31] = tested on: RXF 393 renal
[32] = tested on: TK-10 renal
[33] = tested on: HL-60(TB) leukemia
[34] = tested on: A549 NSCLC
[35] = tested on: SF-268 CNS
[36] = tested on: UACC-257 melanoma
[37] = tested on: HCT-15 colon
[38] = tested on: M14 melanoma
[39] = tested on: EKVX NSCLC
[40] = tested on: MALME-3M melanoma
[41] = tested on: 786-0 renal
[42] = tested on: SK-MEL-2 melanoma
[43] = tested on: ACHN renal
[44] = tested on: HT29 colon
[45] = tested on: SK-OV-3 ovarian
[46] = tested on: HCT-116 colon
[47] = tested on: HCC-2998 colon
[48] = tested on: SNB-19 CNS
[49] = tested on: OVCAR-5 ovarian
[50] = tested on: COLO 205 colon
[51] = tested on: PC-3 prostate
[52] = tested on: IGROV1 ovarian
[53] = tested on: MCF7 breast
[54] = tested on: CAKI-1 renal
[55] = tested on: A498 renal
[56] = tested on: SK-MEL-28 melanoma
[57] = tested on: MOLT-4 leukemia

## O=C1OC(=O)C2C1C1(c3ccccc3)C(c3ccccc3)=C(c3ccccc3)C2(c2ccccc2)S1=O (configuration not stated)
[1]
  GI50: > 100 µM
  TGI: > 100 µM
[2]
  GI50: > 100 µM
  TGI: > 100 µM
[3]
  GI50: > 100 µM
  TGI: > 100 µM
[4]
  GI50: 53.1 µM
  TGI: > 100 µM
[5]
  GI50: > 100 µM
  TGI: > 100 µM
[6]
  GI50: > 100 µM
  TGI: > 100 µM
[7]
  GI50: > 100 µM
  TGI: > 100 µM
[8]
  GI50: > 100 µM
  TGI: > 100 µM
[9]
  GI50: 49.3 µM
  TGI: > 100 µM
[10]
  GI50: > 100 µM
  TGI: > 100 µM
[11]
  GI50: 49.4 µM
  TGI: > 100 µM
[12]
  GI50: > 100 µM
  TGI: > 100 µM
[13]
  GI50: 78.2 µM
  TGI: > 100 µM
[14]
  GI50: > 100 µM
  TGI: > 100 µM
[15]
  GI50: > 100 µM
  TGI: > 100 µM
[16]
  GI50: > 100 µM
  TGI: > 100 µM
[17]
  GI50: > 100 µM
  TGI: > 100 µM
[18]
  GI50: > 100 µM
  TGI: > 100 µM
[19]
  GI50: > 100 µM
  TGI: > 100 µM
[20]
  GI50: > 100 µM
  TGI: > 100 µM
[21]
  GI50: > 100 µM
  TGI: > 100 µM
[22]
  GI50: > 100 µM
  TGI: > 100 µM
[23]
  GI50: > 100 µM
  TGI: > 100 µM
[24]
  GI50: > 100 µM
  TGI: > 100 µM
[25]
  GI50: > 100 µM
  TGI: > 100 µM
[26]
  GI50: > 100 µM
  TGI: > 100 µM
[27]
  GI50: > 100 µM
  TGI: > 100 µM
[28]
  GI50: > 100 µM
  TGI: > 100 µM
[29]
  GI50: > 100 µM
  TGI: > 100 µM
[30]
  GI50: 26.3 µM
  TGI: > 100 µM
[31]
  GI50: > 100 µM
  TGI: > 100 µM
[32]
  GI50: > 100 µM
  TGI: > 100 µM
[33]
  GI50: > 100 µM
  TGI: > 100 µM
[34]
  GI50: > 100 µM
  TGI: > 100 µM
[35]
  GI50: > 100 µM
  TGI: > 100 µM
[36]
  GI50: > 100 µM
  TGI: > 100 µM
[37]
  GI50: > 100 µM
  TGI: > 100 µM
[38]
  GI50: > 100 µM
  TGI: > 100 µM
[39]
  GI50: > 100 µM
  TGI: > 100 µM
[40]
  GI50: > 100 µM
  TGI: > 100 µM
[41]
  GI50: > 100 µM
  TGI: > 100 µM
[42]
  GI50: > 100 µM
  TGI: > 100 µM
[43]
  GI50: > 100 µM
  TGI: > 100 µM
[44]
  GI50: > 100 µM
  TGI: > 100 µM
[45]
  GI50: > 100 µM
  TGI: > 100 µM
[46]
  GI50: > 100 µM
  TGI: > 100 µM
[47]
  GI50: > 100 µM
  TGI: > 100 µM
[48]
  GI50: > 100 µM
  TGI: > 100 µM
[49]
  GI50: > 100 µM
  TGI: > 100 µM
[50]
  GI50: > 100 µM
  TGI: > 100 µM
[51]
  GI50: 87.7 µM
  TGI: > 100 µM
[52]
  GI50: > 100 µM
  TGI: > 100 µM
[53]
  GI50: > 100 µM
  TGI: > 100 µM
[54]
  GI50: > 100 µM
  TGI: > 100 µM
[55]
  GI50: > 100 µM
  TGI: > 100 µM
[56]
  GI50: > 100 µM
  TGI: > 100 µM

## CC1(C)N=C(N)N=C(N)N1c1cc(Cl)ccc1Cl
[1]
  GI50: > 100 µM
  TGI: > 100 µM
[2]
  GI50: > 100 µM
  TGI: > 100 µM
[3]
  GI50: 53.1 µM
  TGI: > 100 µM
[4]
  GI50: > 100 µM
  TGI: > 100 µM
[5]
  GI50: > 100 µM
  TGI: > 100 µM
[7]
  GI50: > 100 µM
  TGI: > 100 µM
[8]
  GI50: > 100 µM
  TGI: > 100 µM
[9]
  GI50: > 100 µM
  TGI: > 100 µM
[10]
  GI50: > 100 µM
  TGI: > 100 µM
[11]
  GI50: > 100 µM
  TGI: > 100 µM
[12]
  GI50: > 100 µM
  TGI: > 100 µM
[13]
  GI50: 55.3 µM
  TGI: > 100 µM
[14]
  GI50: > 100 µM
  TGI: > 100 µM
[15]
  GI50: 74.5 µM
  TGI: > 100 µM
[16]
  GI50: > 100 µM
  TGI: > 100 µM
[17]
  GI50: > 100 µM
  TGI: > 100 µM
[18]
  GI50: > 100 µM
  TGI: > 100 µM
[19]
  GI50: > 100 µM
  TGI: > 100 µM
[20]
  GI50: > 100 µM
  TGI: > 100 µM
[21]
  GI50: > 100 µM
  TGI: > 100 µM
[22]
  GI50: > 100 µM
  TGI: > 100 µM
[23]
  GI50: 86.8 µM
  TGI: > 100 µM
[24]
  GI50: > 100 µM
  TGI: > 100 µM
[25]
  GI50: 46 µM
  TGI: > 100 µM
[26]
  GI50: > 100 µM
  TGI: > 100 µM
[27]
  GI50: 60.6 µM
  TGI: > 100 µM
[28]
  GI50: > 100 µM
  TGI: > 100 µM
[29]
  GI50: 28.3 µM
  TGI: > 100 µM
[30]
  GI50: > 100 µM
  TGI: > 100 µM
[31]
  GI50: > 100 µM
  TGI: > 100 µM
[32]
  GI50: > 100 µM
  TGI: > 100 µM
[33]
  GI50: 74.7 µM
  TGI: > 100 µM
[34]
  GI50: > 100 µM
  TGI: > 100 µM
[35]
  GI50: > 100 µM
  TGI: > 100 µM
[36]
  GI50: > 100 µM
  TGI: > 100 µM
[37]
  GI50: > 100 µM
  TGI: > 100 µM
[38]
  GI50: > 100 µM
  TGI: > 100 µM
[39]
  GI50: > 100 µM
  TGI: > 100 µM
[40]
  GI50: 59.1 µM
  TGI: > 100 µM
[41]
  GI50: > 100 µM
  TGI: > 100 µM
[42]
  GI50: > 100 µM
  TGI: > 100 µM
[43]
  GI50: > 100 µM
  TGI: > 100 µM
[44]
  GI50: 62.5 µM
  TGI: > 100 µM
[45]
  GI50: > 100 µM
  TGI: > 100 µM
[46]
  GI50: 93.8 µM
  TGI: > 100 µM
[47]
  GI50: > 100 µM
  TGI: > 100 µM
[48]
  GI50: > 100 µM
  TGI: > 100 µM
[49]
  GI50: > 100 µM
  TGI: > 100 µM
[50]
  GI50: > 100 µM
  TGI: > 100 µM
[51]
  GI50: > 100 µM
  TGI: > 100 µM
[52]
  GI50: 27.6 µM
  TGI: 88.6 µM
[53]
  GI50: > 100 µM
  TGI: > 100 µM
[55]
  GI50: > 100 µM
  TGI: > 100 µM
[56]
  GI50: > 100 µM
  TGI: > 100 µM
[57]
  GI50: > 100 µM
  TGI: > 100 µM
